Assay results taken from patent publication US20110105434A1, “2-AMINO PURINE DERIVATIVES AND THEIR USE AS ANTI-HERPETIC AGENTS” (priority 2007, published 2011).

Tested on: patient with cranial nerve palsy
Assay: cranial nerve palsy (loss of control of soft palate) and loss of sympathetic nerve function
Assay type: in vivo, human
From the text: The loss of sympathetic nerve functions, can occur with a loss of control of some function of some autonomic muscles, or loss of sensation or both. This is not as common as 1 through 6, above. And, the effects are usually not as severe. One example is the loss of control of the soft palate, either partial or complete which can cause severe snoring, and is part of the sleep apnea syndrome, and also can cause a snorting sound when talking or laughing, or can cause food to get caught under the soft palate. Another condition is cranial nerve palsies as discussed in the Sixteenth Edition of the Merck Manual at page 2395. […] This new treatment effectively suppresses all of these conditions, and in at least one patient return of most lost function of the soft palate has occurred. In another there was significant return of anal sphincter tone with these doses which had been previously lost on the doses of '114.
A patient was experiencing the loss of control of the soft palate because it could not properly contract, a condition known as cranial nerve palsy. The condition causes snorting during talking and difficulty swallowing food. The food often lodges above the soft palate. These symptoms were 80% eliminated at 300 mg/kg of famciclovir per day.

Q: How did the “soft palate muscle strength” value (300 mg/kg daily, over a six-month period) turn out when `CC(=O)OCC(CCn1cnc2cnc(N)nc21)COC(C)=O` [famciclovir, 2-amino-9-(4-acetoxy-3-acetoxymethylbut-1-yl)purine] was run?
A: Its value is “gradually returned”.

Q: And the “cranial nerve palsy symptoms eliminated” value (300 mg/kg per day)?
A: The value was 80%.
